Measurements taken from patent US20230322761A1, “DEGRADATION OF BRUTON'S TYROSINE KINASE (BTK) BY CONJUGATION OF BTK INHIBITORS WITH E3 LIGASE LIGAND AND METHODS OF USE” (BEIGENE, LTD., priority 2020, published 2023).
Where “and” joins values, the source holds several entries; their conditions need not be identical. Equal entries are not always repeated.

These compounds were tested against T1, BTK (Homo sapiens, UniProt Q06187) (assay: BTK degradation in TMD-8 cells, HTRF assay after 6 h treatment). Conditions: IC50 (DC50) of BTK degradation.
T1 construct: endogenous in cells; host or cells: TMD-8 cells
T1 sequence (Q06187 whole entry): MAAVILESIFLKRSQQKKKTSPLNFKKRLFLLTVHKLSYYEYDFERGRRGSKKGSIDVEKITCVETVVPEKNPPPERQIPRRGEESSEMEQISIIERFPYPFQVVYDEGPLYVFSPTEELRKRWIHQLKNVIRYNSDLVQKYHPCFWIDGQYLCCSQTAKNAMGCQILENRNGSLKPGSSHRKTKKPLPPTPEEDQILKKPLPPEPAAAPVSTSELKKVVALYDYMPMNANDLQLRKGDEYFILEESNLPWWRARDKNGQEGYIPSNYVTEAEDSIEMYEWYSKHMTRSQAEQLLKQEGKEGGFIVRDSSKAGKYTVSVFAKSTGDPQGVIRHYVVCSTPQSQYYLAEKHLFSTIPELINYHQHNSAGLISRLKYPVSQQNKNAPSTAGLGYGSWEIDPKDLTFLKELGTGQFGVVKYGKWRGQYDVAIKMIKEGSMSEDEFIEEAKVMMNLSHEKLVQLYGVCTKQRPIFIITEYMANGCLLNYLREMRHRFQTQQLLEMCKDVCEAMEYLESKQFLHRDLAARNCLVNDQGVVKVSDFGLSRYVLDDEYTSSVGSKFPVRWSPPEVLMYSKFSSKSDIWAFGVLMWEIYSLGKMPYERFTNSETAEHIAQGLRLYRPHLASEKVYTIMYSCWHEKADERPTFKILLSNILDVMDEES
Format: cell-based
In short: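 TMD-8 cells treated for 6 h with 8 compound doses in 6-fold dilution steps from a 1 mM 500× DMSO stock (0.2% DMSO), then lysed 30 min at room temperature. BTK in lysate detected by HTRF (665/620 nm) after overnight antibody incubation; DC50 from four-parameter curve fit.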

Structure (SMILES) | DC50
Cc1cc(-c2n[nH]c3ncc(-c4ccc(N5CCN(CC6CCN(c7ccc(N8CCC(=O)NC8=O)cc7)CC6)CC5)cc4)cc23)ccc1CNC(=O)c1noc(C(C)(C)C(F)(F)F)n1 [Example 41, N-(4-(5-(4-(4-((1-(4-(2,4-dioxotetrahydropyrimidin-1(2H)-yl)phenyl)piperidin-4-yl)methyl)piperazin-1-yl)phenyl)-1H-pyrazolo[3,4-b]pyridin-3-yl)-2-methylbenzyl)-5-(1,1,1-trifluoro-2-methylpropan-2-yl)-1,2,4-oxadiazole-3-carboxamide] | 7.05 nM
Cc1cc(CCN2CCN(c3ccc(-c4cnc5[nH]nc(-c6ccc([C@@H](C)NC(=O)c7noc(C(C)(C)C)n7)c(C)c6)c5c4)cc3)CC2)ncc1C1CCC(=O)NC1=O (stereo partly drawn) [Example 141, 5-(tert-butyl)-N-((1R)-1-(4-(5-(4-(4-(2-(5-(2,6-dioxopiperidin-3-yl)-4-methylpyridin-2-yl)ethyl)piperazin-1-yl)phenyl)-1H-pyrazolo[3,4-b]pyridin-3-yl)-2-methylphenyl)ethyl)-1,2,4-oxadiazole-3-carboxamide] | 3.27 nM
C[C@@H](NC(=O)c1noc(C(C)(C)C)n1)c1ccc(-c2n[nH]c3ncc(-c4ccc(N5CCN(CC6CCN(c7ccc(N8CCC(=O)NC8=O)cc7)CC6)CC5)nc4)cc23)cc1CO [Example 178, (R)-5-(tert-butyl)-N-(1-(4-(5-(6-(4-((1-(4-(2,4-dioxotetrahydropyrimidin-1(2H)-yl)phenyl)piperidin-4-yl)methyl)piperazin-1-yl)pyridin-3-yl)-1H-pyrazolo[3,4-b]pyridin-3-yl)-2-(hydroxymethyl)phenyl)ethyl)-1,2,4-oxadiazole-3-carboxamide] | 6.81 nM
COc1cc(CCN2CCN(c3ccc(-c4cnc5[nH]nc(-c6ccc([C@@H](C)NC(=O)c7noc(C(C)(C)C)n7)c(C)c6)c5c4)cc3)CC2)ccc1C1CCC(=O)NC1=O (stereo partly drawn) [Example 137, 5-(tert-butyl)-N-((1R)-1-(4-(5-(4-(4-(4-(2,6-dioxopiperidin-3-yl)-3-methoxyphenethyl)piperazin-1-yl)phenyl)-1H-pyrazolo[3,4-b]pyridin-3-yl)-2-methylphenyl)ethyl)-1,2,4-oxadiazole-3-carboxamide] | 5.23 nM
Cc1cc(-c2n[nH]c3ncc(-c4ccc(N5CCN(CC6CCN(c7ccc(N8CCC(=O)NC8=O)c(C)c7)CC6)CC5)nc4)cc23)ccc1CNC(=O)c1noc(C(C)(C)C)n1 [Example 69, 5-(tert-butyl)-N-(4-(5-(6-(4-((1-(4-(2,4-dioxotetrahydropyrimidin-1(2H)-yl)-3-methylphenyl)piperidin-4-yl)methyl)piperazin-1-yl)pyridin-3-yl)-1H-pyrazolo[3,4-b]pyridin-3-yl)-2-methylbenzyl)-1,2,4-oxadiazole-3-carboxamide] | 2.5 nM and 2.37 nM
Cc1cc(-c2n[nH]c3ncc(-c4ccc(N5CCN(CCc6ccc(N7CCC(=O)NC7=O)cc6)CC5)cc4)cc23)ccc1[C@@H](C)NC(=O)c1noc(C(C)(C)C)n1 [Example 129, (R)-5-(tert-butyl)-N-(1-(4-(5-(4-(4-(4-(2,4-dioxotetrahydropyrimidin-1(2H)-yl)phenethyl)piperazin-1-yl)phenyl)-1H-pyrazolo[3,4-b]pyridin-3-yl)-2-methylphenyl)ethyl)-1,2,4-oxadiazole-3-carboxamide] | 3.73 nM
Cc1cc(-c2n[nH]c3ncc(-c4ccc(N5CCN(CC6CCN(c7ccc(N8CCC(=O)NC8=O)cc7)CC6)CC5)cc4)cc23)ccc1[C@@H](C)NC(=O)c1nc(C(C)(C)C)no1 [Example 21, (R)-3-(tert-butyl)-N-(1-(4-(5-(4-(4-((1-(4-(2,4-dioxotetrahydropyrimidin-1(2H)-yl)phenyl)piperidin-4-yl)methyl)piperazin-1-yl)phenyl)-1H-pyrazolo[3,4-b]pyridin-3-yl)-2-methylphenyl)ethyl)-1,2,4-oxadiazole-5-carboxamide] | 8.62 nM
CC(C)(C)c1noc(C(=O)NCc2ccc(-c3n[nH]c4ncc(-c5ccc(C6CCN(CCC7CCN(c8ccc(N9CCC(=O)NC9=O)c(F)c8)CC7)CC6)cc5)cc34)cc2F)n1 [Example 16, 3-(tert-butyl)-N-(4-(5-(4-(1-(2-(1-(4-(2,4-dioxotetrahydropyrimidin-1(2H)-yl)-3-fluorophenyl)piperidin-4-yl)ethyl)piperidin-4-yl)phenyl)-1H-pyrazolo[3,4-b]pyridin-3-yl)-2-fluorobenzyl)-1,2,4-oxadiazole-5-carboxamide] | 9.04 nM
Cc1cc(-c2n[nH]c3ncc(-c4ccc(N5CCN(CCc6ccc([C@H]7CCC(=O)NC7=O)cc6)CC5)cc4)cc23)ccc1[C@@H](C)NC(=O)c1noc(C(C)(C)C)n1 [Example 111, 5-(tert-butyl)-N—((R)-1-(4-(5-(4-(4-(4-((R)-2,6-dioxopiperidin-3-yl)phenethyl)piperazin-1-yl)phenyl)-1H-pyrazolo[3,4-b]pyridin-3-yl)-2-methylphenyl)ethyl)-1,2,4-oxadiazole-3-carboxamide] | 4.93 nM
Cc1cc(-c2n[nH]c3ncc(-c4ccc(N5CCN(CCc6ccc([C@@H]7CCC(=O)NC7=O)cc6)CC5)cn4)cc23)ccc1[C@@H](C)NC(=O)c1noc(C(C)(C)C)n1 [Example 161, 5-(tert-butyl)-N—((R)-1-(4-(5-(5-(4-(4-((S)-2,6-dioxopiperidin-3-yl)phenethyl)piperazin-1-yl)pyridin-2-yl)-1H-pyrazolo[3,4-b]pyridin-3-yl)-2-methylphenyl)ethyl)-1,2,4-oxadiazole-3-carboxamide] | 5.27 nM
Cc1cc(-c2n[nH]c3ncc(-c4ccc(N5CCN(CC6CCN(c7ccc(N8CCC(=O)NC8=O)c(C)c7)CC6)CC5)cc4)cc23)ccc1[C@@H](C)NC(=O)c1noc(C(C)(C)C)n1 [Example 39, (R)-5-(tert-butyl)-N-(1-(4-(5-(4-(4-((1-(4-(2,4-dioxotetrahydropyrimidin-1(2H)-yl)-3-methylphenyl)piperidin-4-yl)methyl)piperazin-1-yl)phenyl)-1H-pyrazolo[3,4-b]pyridin-3-yl)-2-methylphenyl)ethyl)-1,2,4-oxadiazole-3-carboxamide] | 2.6 nM
Cc1cc(-c2n[nH]c3ncc(-c4ccc(C5(C)CCN(CC6CCN(c7ccc(N8CCC(=O)NC8=O)cc7)CC6)CC5)cc4)cc23)ccc1[C@@H](C)NC(=O)c1noc(C(C)(C)C)n1 [Example 210, (R)-5-(tert-butyl)-N-(1-(4-(5-(4-(1-((1-(4-(2,4-dioxotetrahydropyrimidin-1(2H)-yl)phenyl)piperidin-4-yl)methyl)-4-methylpiperidin-4-yl)phenyl)-1H-pyrazolo[3,4-b]pyridin-3-yl)-2-methylphenyl)ethyl)-1,2,4-oxadiazole-3-carboxamide] | 5.98 nM

Further compounds by falling DC50, results first:

DC50 | Structure (SMILES)
2.08 nM | Cc1cc(-c2n[nH]c3ncc(-c4ccc(N5CCN(C6CC(c7ccc([C@@H]8CCC(=O)NC8=O)cc7)C6)CC5)cc4)cc23)ccc1[C@@H](C)NC(=O)c1noc(C(C)(C)C)n1 (stereo partly drawn) [Example 208, 5-(tert-butyl)-N—((R)-1-(4-(5-(4-(4-((1S,3s)-3-(4-((R)-2,6-dioxopiperidin-3-yl)phenyl)cyclobutyl)piperazin-1-yl)phenyl)-1H-pyrazolo[3,4-b]pyridin-3-yl)-2-methylphenyl)ethyl)-1,2,4-oxadiazole-3-carboxamide]
1.95 nM | Cc1cc(-c2n[nH]c3ncc(-c4ccc(N5CC6(CN(CC7CCN(c8ccc(N9CCC(=O)NC9=O)cc8)CC7)C6)C5)cc4)cc23)ccc1[C@@H](C)NC(=O)c1nc(C(C)(C)C)no1 [Example 212, (R)-3-(tert-butyl)-N-(1-(4-(5-(4-(6-((1-(4-(2,4-dioxotetrahydropyrimidin-1(2H)-yl)phenyl)piperidin-4-yl)methyl)-2,6-diazaspiro[3.3]heptan-2-yl)phenyl)-1H-pyrazolo[3,4-b]pyridin-3-yl)-2-methylphenyl)ethyl)-1,2,4-oxadiazole-5-carboxamide]
1.93 nM | Cc1cc(-c2n[nH]c3ncc(-c4ccc(N5CCC(CN6CCN(c7ccc(N8CCC(=O)NC8=O)cc7)CC6)CC5)cc4)cc23)ccc1[C@@H](C)NC(=O)c1noc(C(C)(C)C)n1 [Example 144, (R)-5-(tert-butyl)-N-(1-(4-(5-(4-(4-((4-(4-(2,4-dioxotetrahydropyrimidin-1(2H)-yl)phenyl)piperazin-1-yl)methyl)piperidin-1-yl)phenyl)-1H-pyrazolo[3,4-b]pyridin-3-yl)-2-methylphenyl)ethyl)-1,2,4-oxadiazole-3-carboxamide]
1.3 nM | Cc1cc(-c2n[nH]c3ncc(-c4ccc(N5CCN(C6CC(c7ccc(C8CCC(=O)NC8=O)cc7)C6)CC5)cc4)cc23)ccc1[C@@H](C)NC(=O)c1noc(C(C)(C)C)n1 (stereo partly drawn) [Example 214, 5-(tert-butyl)-N-((1R)-1-(4-(5-(4-(4-((1s,3s)-3-(4-(2,6-dioxopiperidin-3-yl)phenyl)cyclobutyl)piperazin-1-yl)phenyl)-1H-pyrazolo[3,4-b]pyridin-3-yl)-2-methylphenyl)ethyl)-1,2,4-oxadiazole-3-carboxamide]
1.24 nM | Cc1cc(-c2n[nH]c3ncc(-c4ccc(N5CCN(CCc6ccc([C@H]7CCC(=O)NC7=O)c(F)c6)CC5)cn4)cc23)ccc1[C@@H](C)NC(=O)c1noc(C(C)(C)C)n1 [Example 181, 5-(tert-butyl)-N—((R)-1-(4-(5-(5-(4-(4-((R)-2,6-dioxopiperidin-3-yl)-3-fluorophenethyl)piperazin-1-yl)pyridin-2-yl)-1H-pyrazolo[3,4-b]pyridin-3-yl)-2-methylphenyl)ethyl)-1,2,4-oxadiazole-3-carboxamide]
0.978 nM | Cc1cc(-c2n[nH]c3ncc(-c4ccc(C5CCN(CC6CCN(c7ccc(N8CCC(=O)NC8=O)cc7)CC6)CC5)cc4)cc23)ccc1CNC(=O)c1noc(C(C)(C)C)n1 [Example 1, 5-(tert-butyl)-N-(4-(5-(4-(1-((1-(4-(2,4-dioxotetrahydropyrimidin-1(2H)-yl)phenyl)piperidin-4-yl)methyl)piperidin-4-yl)phenyl)-1H-pyrazolo[3,4-b]pyridin-3-yl)-2-methylbenzyl)-1,2,4-oxadiazole-3-carboxamide]

Same assay, conditions: TMD8, maximum percentage of inhibition (degradation)

Dmax [%] | Structure (SMILES)
97.5 | Cc1cc(-c2n[nH]c3ncc(-c4ccc(N5CCN(CC6CCN(c7ccc(N8CCC(=O)NC8=O)cc7)CC6)CC5)cc4)cc23)ccc1[C@@H](C)NC(=O)c1nc(C(C)(C)C)no1 [Example 21, (R)-3-(tert-butyl)-N-(1-(4-(5-(4-(4-((1-(4-(2,4-dioxotetrahydropyrimidin-1(2H)-yl)phenyl)piperidin-4-yl)methyl)piperazin-1-yl)phenyl)-1H-pyrazolo[3,4-b]pyridin-3-yl)-2-methylphenyl)ethyl)-1,2,4-oxadiazole-5-carboxamide]
96.4 | CC(C)(C)c1noc(C(=O)NCc2ccc(-c3n[nH]c4ncc(-c5ccc(C6CCN(CCC7CCN(c8ccc(N9CCC(=O)NC9=O)c(F)c8)CC7)CC6)cc5)cc34)cc2F)n1 [Example 16, 3-(tert-butyl)-N-(4-(5-(4-(1-(2-(1-(4-(2,4-dioxotetrahydropyrimidin-1(2H)-yl)-3-fluorophenyl)piperidin-4-yl)ethyl)piperidin-4-yl)phenyl)-1H-pyrazolo[3,4-b]pyridin-3-yl)-2-fluorobenzyl)-1,2,4-oxadiazole-5-carboxamide]
96.7 | Cc1cc(-c2n[nH]c3ncc(-c4ccc(C5CCN(CC6CCN(c7ccc(N8CCC(=O)NC8=O)cc7)CC6)CC5)cc4)cc23)ccc1CNC(=O)c1noc(C(C)(C)C)n1 [Example 1, 5-(tert-butyl)-N-(4-(5-(4-(1-((1-(4-(2,4-dioxotetrahydropyrimidin-1(2H)-yl)phenyl)piperidin-4-yl)methyl)piperidin-4-yl)phenyl)-1H-pyrazolo[3,4-b]pyridin-3-yl)-2-methylbenzyl)-1,2,4-oxadiazole-3-carboxamide]
